# Source: US20260263485A1, “AMINOSTEROL COMPOUNDS, AMINOSTEROL-CYCLODEXTRIN FORMULATIONS, AND METHODS OF USING THE SAME” (Enterin, Inc., priority 2022, published 2026)
# Where “and” joins values, the source holds several entries; their conditions need not be identical. Equal values may be shown once. Read-outs that look alike come from different tables or passages of the source.
# What was measured:
# [1] = Plasma pharmacokinetics of ENT-03S cyclodextrin formulation after subcutaneous injection; format: in vivo, rat; conditions: 20% beta-cyclodextrin formulation, male SD rats
# Procedure: In this example, ENT-03S was formulated with unmodified beta-cyclodextrin at a concentration of 25 mg/ml ENT-03, and 20% beta-cyclodextrin, pH 7.5, buffered with phosphate.
# Male Sprague-Dawley rats were administered the ENT-03-cyclodextrin formulation subcutaneous at a dose of 10 mg/kg. Blood samples were drawn from the tail vein at various times, the concentrations of ENT-03 determined, and PK parameters determined.
# [2] = Visible local tissue necrosis on subcutaneous delivery to the rat; format: in vivo; conditions: aqueous solution in the absence of cyclodextrin, pH 74
# Description: The dose chosen was the maximum ENT-03S concentration that could be delivered to the rat without causing visible local tissue necrosis.
# [3] = SC Dose 10 mg/kg, plasma, individual rats, 10 mg/kg
# [4] = male, Sprague-Dawley, rat, plasma, sc, 10 mg/kg, 10 mg/kg SC, individual rats, read-out: Concentration (ng/ml) Rat 1-3
# [5] = male, Sprague-Dawley, rat, plasma, sc, 10 mg/kg, 10 mg/kg SC, mean, read-out: Concentration Mean
smiles,measurement,setting,value
"C[C@H](CCC[C@H](C)C(=O)O)[C@H]1CCC2C3C(CC[C@@]21C)[C@@]1(C)CC[C@H](NCCCNCCCCNCCCN)C[C@@H]1C[C@H]3O (stereo partly drawn) [ENT-03S, (2S,6R)-6-((3S,5R,7R,10S,13R,17R)-3-((3-((4-((3-aminopropyl)amino)butyl)amino)propyl)amino)-7-hydroxy-10,13-dimethylhexadecahydro-1 H-cyclopenta[a]phenanthren-17-yl)-2-methylheptanoic acid]",Concentration (ng/ml) Rat 1-3,"[1]; 10 mg/kg SC, 4 h, individual rats, 10 mg/kg",29600 ng/mL and 25400 ng/mL
same,Concentration (ng/ml) Rat 1-3,"[1]; 10 mg/kg SC, 8 h, individual rats, 10 mg/kg",25000 ng/mL and 23000 ng/mL
same,Concentration (ng/ml) Rat 1-3,"[1]; 10 mg/kg SC, 24 h, individual rats, 10 mg/kg",14100 ng/mL and 12600 ng/mL
same,Concentration (ng/ml) Rat 1-3,"[1]; 10 mg/kg SC, 48 h, individual rats, 10 mg/kg",7700 ng/mL and 5620 ng/mL
same,Concentration (ng/ml) Rat 1-3,"[1]; 10 mg/kg SC, 72 h, individual rats, 10 mg/kg",1850 ng/mL and 4200 ng/mL and 2440 ng/mL
same,AUC_% Extrap_obs,[1]; [3],6.74% and 15.0% and 8.08%
same,AUClast,[1]; [3],944.488 µg·h/mL and 811.185 µg·h/mL
same,AUClast/D,[1]; [3],71600 kg·ng·h/mL/mg and 94400 kg·ng·h/mL/mg and 81100 kg·ng·h/mL/mg
same,AUClnf,[1]; [3],1110.949 µg·h/mL and 882.526 µg·h/mL
same,Cmax,[1]; [3],32700 ng/mL and 33300 ng/mL
same,MRTlnf_obs,[1]; [3],24.3 h and 36.3 h and 27.2 h
same,T1/2,[1]; [3],27.5 h and 20.3 h
same,AUC_% Extrap_obs Mean,"[1]; SC Dose 10 mg/kg, plasma, mean",9.9%
same,AUClast/D Mean,"[1]; SC Dose 10 mg/kg, plasma, mean",82400 kg·ng·h/mL/mg
same,MRTlnf_obs Mean,"[1]; SC Dose 10 mg/kg, plasma, mean",29.3 h
same,Tmax,"[1]; Sprague-Dawley, rat, SC Dose 10 mg/kg, plasma, individual rats, read-out: Tmax",2 h
same,concentration at 0.25 h,[1]; [4],23100 ng/mL
same,concentration at 0.25 h,[1]; [5],22000 ng/mL
same,concentration at 0.5 h,[1]; [4],25700 ng/mL
same,concentration at 0.5 h,[1]; [5],27700 ng/mL
same,concentration at 1 h,[1]; [4],30700 ng/mL
same,concentration at 1 h,[1]; [5],31800 ng/mL
same,concentration at 2 h,[1]; [4],31300 ng/mL
same,concentration at 2 h,[1]; [5],32400 ng/mL
same,concentration at 4 h,"[1]; male, Sprague-Dawley, rat, plasma, sc, 10 mg/kg, 10 mg/kg SC, 4 h, individual rats, read-out: Concentration (ng/ml) Rat 1-3",25700 ng/mL
same,concentration at 4 h,"[1]; male, Sprague-Dawley, rat, plasma, sc, 10 mg/kg, 10 mg/kg SC, 4 h, mean, read-out: Concentration Mean",26900 ng/mL
same,concentration at 8 h,"[1]; male, Sprague-Dawley, rat, plasma, sc, 10 mg/kg, 10 mg/kg SC, 8 h, individual rats, read-out: Concentration (ng/ml) Rat 1-3",22700 ng/mL
same,concentration at 8 h,"[1]; male, Sprague-Dawley, rat, plasma, sc, 10 mg/kg, 10 mg/kg SC, 8 h, mean, read-out: Concentration Mean",23600 ng/mL
same,concentration at 24 h,"[1]; male, Sprague-Dawley, rat, plasma, sc, 10 mg/kg, 10 mg/kg SC, 24 h, individual rats, read-out: Concentration (ng/ml) Rat 1-3",10300 ng/mL
same,concentration at 24 h,"[1]; male, Sprague-Dawley, rat, plasma, sc, 10 mg/kg, 10 mg/kg SC, 24 h, mean, read-out: Concentration Mean",12300 ng/mL
same,concentration at 48 h,"[1]; male, Sprague-Dawley, rat, plasma, sc, 10 mg/kg, 10 mg/kg SC, 48 h, individual rats, read-out: Concentration (ng/ml) Rat 1-3",4080 ng/mL
same,concentration at 48 h,"[1]; male, Sprague-Dawley, rat, plasma, sc, 10 mg/kg, 10 mg/kg SC, 48 h, mean, read-out: Concentration Mean",5770 ng/mL
same,concentration at 72 h,"[1]; male, Sprague-Dawley, rat, plasma, sc, 10 mg/kg, 10 mg/kg SC, 72 h, mean",2830 ng/mL
same,AUC(0-t),"[1]; male, Sprague-Dawley, rat, plasma, sc, 10 mg/kg, SC Dose 10 mg/kg, plasma, individual rats, read-out: AUClast",716 µg·h/mL
same,AUC,"[1]; male, Sprague-Dawley, rat, plasma, sc, 10 mg/kg, SC Dose 10 mg/kg, plasma, individual rats, read-out: AUClnf",767 µg·h/mL
same,Cmax,"[1]; male, Sprague-Dawley, rat, plasma, sc, 10 mg/kg, SC Dose 10 mg/kg, plasma, individual rats, read-out: Cmax",31300 ng/mL
same,half-life,"[1]; male, Sprague-Dawley, rat, plasma, sc, 10 mg/kg, SC Dose 10 mg/kg, plasma, individual rats, read-out: T1/2 (converted)",19.4 h
same,AUC(0-t),"[1]; male, Sprague-Dawley, rat, plasma, sc, 10 mg/kg, SC Dose 10 mg/kg, plasma, mean, read-out: AUClast Mean",824 µg·h/mL
same,AUC,"[1]; male, Sprague-Dawley, rat, plasma, sc, 10 mg/kg, SC Dose 10 mg/kg, plasma, mean, read-out: AUClnf Mean",920 µg·h/mL
same,Cmax,"[1]; male, Sprague-Dawley, rat, plasma, sc, 10 mg/kg, SC Dose 10 mg/kg, plasma, mean, read-out: Cmax Mean",32400 ng/mL
same,half-life,"[1]; male, Sprague-Dawley, rat, plasma, sc, 10 mg/kg, SC Dose 10 mg/kg, plasma, mean, read-out: T1/2 Mean (converted)",22.4 h
same,maximum ENT-03S concentration that could be delivered to the rat without causing visible local tissue necrosis,[2],2 mg/mL
